{"source": "patent US5015629A", "about": "“Tissue repair” (University of Southern California, priority 1990, dated 1991)", "tested_on": "bovine endothelial cells", "format": "cell-based", "procedure": "In a second example, the effects of angiotensin II on proliferation (mitogenesis) and directional migration (chemotaxis) of endothelial cells were determined. In this regard, it is important to consider that tissue repair requires proper neovascularization, and that new blood vessel growth for wound repair requires endothelial cell replication, migration and orientation. Wound healing factors must be able to stimulate chemotaxis and cell proliferation in addition to initiating new blood vessel growth. The proliferation (mitogenesis) and the directional orientation of such cells (chemotaxis) was studied in vitro using bovine aortal endothelial cells. […] Background radioactivity (noncell-associated) was assessed by removing some filters immediately after the addition of cells prior to cellular migration, and processing these control filters the same way as the test filters. […] The latter was calculated by the following formula: [formula] where R equals the radioactivity in cpm associated with each test filter, B equals the cpm obtained from the background filters, T equals the cpm obtained from a volume (V) of cells in suspension at a known concentration (C) and S equals the cpm obtained from the cell supernate (noncellular, or unbound radioactivity). […]"}
{"smiles": "CC[C@H](C)[C@H](NC(=O)[C@H](Cc1ccc(O)cc1)NC(=O)[C@@H](NC(=O)[C@H](CCCNC(=N)N)NC(=O)[C@@H](N)CC(=O)O)C(C)C)C(=O)N[C@@H](Cc1c[nH]cn1)C(=O)N1CCC[C@H]1C(=O)N[C@@H](Cc1ccccc1)C(=O)O", "note": "[angiotensin II]", "values": [{"measurement": "ED50 of chemotaxis", "value": 3, "unit": "nanogram/ml"}]}
